Test [1] has as its target T1, complement C5a receptor 1 (C5aR1) (Homo sapiens, UniProt P21730).
T1 construct: β-galactosidase fragment (PathHunter enzyme complementation); host or cells: CHO-K1 (PathHunter CHO-K1 C5aR1 β-arrestin cell line)
T1 sequence (P21730 1-350): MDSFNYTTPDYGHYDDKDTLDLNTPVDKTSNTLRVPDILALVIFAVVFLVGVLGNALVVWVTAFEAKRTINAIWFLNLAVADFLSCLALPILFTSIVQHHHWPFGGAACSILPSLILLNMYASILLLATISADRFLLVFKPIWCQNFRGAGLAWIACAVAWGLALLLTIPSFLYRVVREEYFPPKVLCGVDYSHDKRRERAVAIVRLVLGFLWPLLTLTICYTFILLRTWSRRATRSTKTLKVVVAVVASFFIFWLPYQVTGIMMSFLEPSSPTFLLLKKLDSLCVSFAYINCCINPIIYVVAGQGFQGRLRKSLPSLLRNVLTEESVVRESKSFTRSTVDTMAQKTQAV
Kind of test: β-arrestin recruitment via C5aR1 activation in live CHO-K1 cells (PathHunter), antagonist mode. It is filed as cell-based. The note with it: antagonist mode; recombinant hC5a (EC90) as competing natural agonist; live CHO-K1 cells; read-out: [Antagonist] B-arrestin2 recruitment: Average IC50. Summed up: (§1)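 β-arrestin recruitment to C5aR1 in CHO-K1 cells is detected by enzyme-fragment complementation. Antagonism is measured against recombinant hC5a at its EC90; agonism is measured with compound alone. Potencies are grouped into IC50 categories.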
A general note: Arrestin recruitment assays detect the binding of arrestin to an activated receptor.

The target of test [2] is T1, complement C5a receptor 1 (C5aR1). Kind of test: β-arrestin recruitment via C5aR1 activation in live CHO-K1 cells (PathHunter), agonist mode. Type of test: cell-based. Summed up:
as §1

Like-named read-outs stand apart in the source and are kept apart here. Where only a bound is given, the exact number is not on record here.

Data on 22 compounds can be found in US20260317320A1, “C5AR1 ANTAGONISTS AND USES THEREOF” (Vanqua Bio, Inc., priority 2022, published 2026).

What is called IC50 is the point on the concentration scale where inhibition reaches its midpoint. Turning to `Cc1cccc(F)c1N1CCC(c2cc3cncnc3n(Cc3nccnc3C(F)(F)F)c2=O)CC1` [compound 28, 6-(1-(2-fluoro-6-methylphenyl)piperidin-4-yl)-8-((3-(trifluoromethyl)pyrazin-2-yl)methyl)pyrido[2,3-d]pyrimidin-7(8H)-one], the half-maximal inhibitory concentration (IC50) in test [1] lay in the range of 5 to 100 µM. Besides, the “[Agonist] B-arrestin2 recruitment: Average EC50 (nM)” value (shortened to “[Agonist] B-arrestin2 recruitment”) in test [2] is recorded as “Non-Active”.
Turning to `Cc1cnc2cc(C3CCN(c4c(C)cccc4F)CC3)c(=O)n(Cc3nccnc3C(F)F)c2n1` [compound 120, 5-((3-(Difluoromethyl)pyrazin-2-yl)methyl)-7-(1-(2-fluoro-6-methylphenyl)piperidin-4-yl)-3-methylpyrido[2,3-b]pyrazin-6(5H)-one], in test [1], the IC50 is below 0.5 µM. Besides, the “[Agonist] B-arrestin2 recruitment” value in test [2] was “Non-Active”.
For `Cc1cccc(F)c1N1CCC(c2cc3nccnc3n(Cc3nccnc3C)c2=O)CC1` [compound 20, 7-(1-(2-Fluoro-6-methylphenyl)piperidin-4-yl)-5-((3-methylpyrazin-2-yl)methyl)pyrido[2,3-b]pyrazin-6(5H)-one] the same measures were 0.5 to 5 µM and “Non-Active”.
For `Cc1cnc2cc([C@H]3CC[C@H](c4c(C)ccnc4F)CC3)c(=O)n(Cc3nccnc3C(F)(F)F)c2n1` [143A, 7-((1r,4r)-4-(2-Fluoro-4-methylpyridin-3-yl)cyclohexyl)-3-methyl-5-((3-(trifluoromethyl)pyrazin-2-yl)methyl)pyrido[2,3-b]pyrazin-6(5H)-one] the same measures were below 0.5 µM and “Non-Active”.
Taken in the same sequence, the figures for `Cc1cccc(F)c1N1CCC(c2cc3nccnc3n(Cc3nccnc3OCC(F)(F)F)c2=O)CC1` [compound 6, 7-(1-(2-Fluoro-6-methylphenyl)piperidin-4-yl)-5-((3-(2,2,2-trifluoroethoxy)pyrazin-2-yl)methyl)pyrido[2,3-b]pyrazin-6(5H)-one] were below 0.5 µM and “Non-Active”.
As for `Cc1cccc(F)c1N1CCC(n2c(=O)c3nccnc3n(Cc3nccnc3C(F)(F)F)c2=O)CC1` [compound 37, 3-(1-(2-Fluoro-6-methylphenyl)piperidin-4-yl)-1-((3-(trifluoromethyl)pyrazin-2-yl)methyl)pteridine-2,4(1H,3H)-dione], the IC50 in test [1] is 5 to 100 µM. For the same compound, the “[Agonist] B-arrestin2 recruitment” value in test [2] is “Non-Active”.
For `Cc1cnc2cc(C3CCN(c4ncsc4C)CC3)c(=O)n(Cc3ncccc3C(F)(F)F)c2n1` [compound 131] the same measures were below 0.5 µM and “Non-Active”.
Taken in the same sequence, the figures for `O=c1c(C2CCN(c3cnccc3Cl)CC2)cc2nccnc2n1Cc1ncccc1C(F)(F)F` [compound 71, 7-(1-(4-Chloropyridin-3-yl)piperidin-4-yl)-5-((3-(trifluoromethyl)pyridin-2-yl)methyl)-pyrido[2,3-b]pyrazin-6(5H)-one] were 0.5 to 5 µM and “Non-Active”.
Taken in the same sequence, the figures for `Cc1cnc2cc([C@H]3CC[C@H](c4cnsc4C)CC3)c(=O)n(Cc3nccnc3C(F)(F)F)c2n1` [compound 242, 3-Methyl-7-((1r,4r)-4-(5-methylisothiazol-4-yl)cyclohexyl)-5-((3-(trifluoromethyl)pyrazin-2-yl)methyl)pyrido[2,3-b]pyrazin-6(5H)-one] were below 0.5 µM and “Non-Active”.
For the compound `COc1nccc(C)c1[C@H]1CC[C@H](c2cc3ccc(C)nc3n(Cc3ncccc3C3CC3)c2=O)CC1` [compound 252, 1-((3-Cyclopropylpyridin-2-yl)methyl)-3-((1r,4r)-4-(2-methoxy-4-methylpyridin-3-yl)cyclohexyl)-7-methyl-1,8-naphthyridin-2(1H)-one], the half-inhibitory concentration (IC50) in test [1] was below 0.5 µM. In addition, the “[Agonist] B-arrestin2 recruitment” value in test [2] (at 10 μM) is “Non-Active at 10 μM”.
For `Cc1cnc2cc(C3CCN(c4cc(F)cnc4C)CC3)c(=O)n(Cc3ncccc3C(F)(F)F)c2n1` [compound 56, 7-(1-(5-fluoro-2-methylpyridin-3-yl)piperidin-4-yl)-3-methyl-5-((3-(trifluoromethyl)-pyridin-2-yl)methyl)pyrido[2,3-b]pyrazin-6(5H)-one], the IC50 in test [1] is 5 to 100 µM. In test [2], the “[Agonist] B-arrestin2 recruitment” value is given as “Non-Active”.
Taken in the same sequence, the figures for `O=c1c(C2CCN(c3ccccc3C(F)(F)F)CC2)cc2nccnc2n1Cc1nccnc1C(F)(F)F` [compound 64, 7-(1-(2-(Trifluoromethyl)phenyl)piperidin-4-yl)-5-((3-(trifluoromethyl)pyrazin-2-yl)methyl)pyrido[2,3-b]pyrazin-6(5H)-one] were 0.5 to 5 µM and “Non-Active”.
Consider `Cc1cnc2cc([C@H]3CC[C@@H](c4c(C)cccc4F)C3)c(=O)n(Cc3ncccc3C(F)F)c2n1` [187A, 5-((3-(Difluoromethyl)pyridin-2-yl)methyl)-7-((1S,3R)-3-(2-fluoro-6-methylphenyl)cyclopentyl)-3-methylpyrido[2,3-b]pyrazin-6(5H)-one], for which the IC50 in test [1] is below 0.5 µM. Moreover, the “[Agonist] B-arrestin2 recruitment” value in test [2] (at 10 μM) was “Non-Active at 10 μM”.
Taken in the same sequence, the figures for `Cc1ccc2cc([C@H]3CC[C@H](c4c(C)cccc4F)CC3)c(=O)n(Cc3ccccc3C(F)(F)F)c2n1` [compound 225, 3-((1r,4r)-4-(2-Fluoro-6-methylphenyl)cyclohexyl)-7-methyl-1-(2-(trifluoromethyl)benzyl)-1,8-naphthyridin-2(1H)-one] were below 0.5 µM and “Non-Active at 10 μM”.
As for `Cc1cccc(F)c1N1CCC(c2cc3nccnc3n(Cc3nccn(C(F)F)c3=O)c2=O)CC1` [compound 159, 5-((4-(Difluoromethyl)-3-oxo-3,4-dihydropyrazin-2-yl)methyl)-7-(1-(2-fluoro-6-methylphenyl)piperidin-4-yl)pyrido[2,3-b]pyrazin-6(5H)-one], in test [1], the 50% inhibitory concentration (IC50) lay within 5 to 100 µM. The “[Agonist] B-arrestin2 recruitment” value in test [2] (at 10 μM) is given as “Non-Active at 10 μM”.
For `Cc1cnc2cc([C@H]3CC[C@H](c4c(C)cccc4F)CC3)c(=O)n(Cc3ncccc3CC(F)(F)F)c2n1` [compound 219, 7-((1r,4r)-4-(2-Fluoro-6-methylphenyl)cyclohexyl)-3-methyl-5-((3-(2,2,2-trifluoroethyl)pyridin-2-yl)methyl) pyrido[2,3-b]pyrazin-6(5H)-one] the same measures were below 0.5 µM and “Non-Active at 10 μM”.
Taken in the same sequence, the figures for `Cc1cnc2cc(C3CCN(c4ncccc4C(F)F)CC3)c(=O)n(Cc3ncccc3C(F)(F)F)c2n1` [compound 154, 7-(1-(3-(Difluoromethyl)pyridin-2-yl)piperidin-4-yl)-3-methyl-5-((3-(trifluoromethyl)pyridin-2-yl)methyl)pyrido[2,3-b]pyrazin-6(5H)-one] were below 0.5 µM and “Non-Active at 10 μM”.
Taken in the same sequence, the figures for `COc1nccc(C)c1[C@H]1CC[C@H](c2cc3ncc(C)nc3n(Cc3ncccc3C(F)(F)F)c2=O)CC1` [compound 230, 7-((1r,4r)-4-(2-Methoxy-4-methylpyridin-3-yl)cyclohexyl)-3-methyl-5-((3-(trifluoromethyl)pyridine-2-yl)methyl)pyrido[2,3-b]pyrazin-6(5H)-one] were below 0.5 µM and “Non-Active at 10 μM”.
Consider `Cc1cnc2cc([C@H]3CC[C@H](c4c(C)cccc4F)CC3)c(=O)n(Cc3nccnc3C(F)F)c2n1` [148B, 5-((3-(Difluoromethyl)pyrazin-2-yl)methyl)-7-((1r,4r)-4-(2-fluoro-6-methylphenyl)cyclohexyl)-3-methylpyrido[2,3-b]pyrazin-6(5H)-one], for which the concentration for half-maximal inhibition (IC50) in test [1] is below 0.5 µM. Further, the “[Agonist] B-arrestin2 recruitment” value in test [2] is reported as “Non-Active”.
Regarding `Cc1cnc2cc([C@H]3CC[C@H](c4c(F)ccc5c4cnn5C)CC3)c(=O)n(Cc3ncccc3C(F)(F)F)c2n1` [compound 207, 7-((1r,4r)-4-(5-Fluoro-1-methyl-1H-indazol-4-yl)cyclohexyl)-3-methyl-5-((3-(trifluoromethyl)pyridin-2-yl)methyl)pyrido[2,3-b]pyrazin-6(5H)-one], the half-inhibitory concentration (IC50) in test [1] lay within 5 to 100 µM. Besides, the “[Agonist] B-arrestin2 recruitment” value in test [2] (at 10 μM) is on record as “Non-Active at 10 μM”.
For the compound `Cc1cccc(F)c1N1CCC(c2cc3nccnc3n([C@@H]3CCCc4nccnc43)c2=O)CC1` [43a, (R)-7-(1-(2-Fluoro-6-methylphenyl)piperidin-4-yl)-5-(5,6,7,8-tetrahydroquinoxalin-5-yl)pyrido[2,3-b]pyrazin-6(5H)-one], the IC50 in test [1] was in the range of 0.5 to 5 µM. For the same compound, in test [2], the “[Agonist] B-arrestin2 recruitment” value is “Non-Active”.
For `CCc1cnc2c(cc([C@H]3CC[C@H](c4c(C)cccc4F)CC3)c(=O)n2Cc2ncccc2OC(F)(F)F)n1` [compound 215, 2-Ethyl-7-((1r,4r)-4-(2-fluoro-6-methylphenyl)cyclohexyl)-5-((3-(trifluoromethoxy)pyridin-2-yl)methyl)pyrido[2,3-b]pyrazin-6(5H)-one], in test [1], the IC50 was below 0.5 µM. In addition, in test [2] (at 10 μM), the “[Agonist] B-arrestin2 recruitment” value is “Non-Active at 10 μM”.
